Among the data in patent US9096565B2, “Inhibitors of histone deacetylase” (MethylGene Inc., priority 2007, dated 2015) are IC50 values, retold here.

Broadly, the IC50 is the point on the concentration scale where inhibition reaches its midpoint. A high value points to weaker potency.

This assay addresses one or more of HDAC-4, HDAC-5, HDAC-6, HDAC-7, HDAC-8, HDAC-9, HDAC-10 and HDAC-11. As to the kind of experiment: Inhibition of histone deacetylase enzymatic activity (summary statement over isoforms). Type of assay: biochemical. The following applies: Table 3, selected examples; HDAC isoform not given. The essentials: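 Activity was measured as deacetylation of the fluorogenic substrate Boc-Lys(trifluoroacetyl)-AMC over 20-30 min at 37 °C, after a 5 min room-temperature preincubation of enzyme with compound. Trypsin (1 mg/mL) with a reference HDAC inhibitor ended the reaction.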
Take `O=C(NO)C(c1ccccc1)c1ccc(OCCOCc2ccccc2)cc1` (centres unmarked) [Compound 3-68, 2-(4-(2-(benzyloxy)ethoxy)phenyl)-N-hydroxy-2-phenylacetamide]: the IC50 is below 1 µM.

`O=C(NO)C(c1ccccc1)c1ccc(N2CCOCC2)cc1` (centres unmarked) [Compound 5-22, N-hydroxy-2-(4-morpholinophenyl)-2-phenylacetamide] yielded an IC50 below 1 µM.

`O=C(NO)C(c1ccccc1)N1CCC(c2noc3ccc(F)cc23)CC1` (centres unmarked) [Compound 5-18, 2-(4-(5-fluorobenzo[d]isoxazol-3-yl)piperidin-1-yl)-N-hydroxy-2-phenylacetamide]: the IC50 was below 1 µM.

Regarding `O=C(NO)C(c1ccccc1)c1ccc(N2Cc3ccccc3C2)cc1` (centres unmarked) [Compound 5-107, N-hydroxy-2-(4-(isoindolin-2-yl)phenyl)-2-phenylacetamide], the IC50 is below 1 µM.

`O=C(NO)C(c1ccccc1)N1CCN(c2ccc(C(F)(F)F)cn2)CC1` (centres unmarked) [Compound 5-48, N-hydroxy-2-phenyl-2-(4-(5-(trifluoromethyl)pyridin-2-yl)piperazin-1-yl)acetamide] displayed an IC50 below 1 µM.

As to `O=C(NO)C1c2ccccc2CCc2ccccc21` [Compound 5-31], the IC50 is 1 to 15 µM.

The molecule `O=C(NO)C(c1ccccc1)N1CCN(C(=O)c2ccccc2)CC1` (centres unmarked) [Compound 5-42, 2-(4-benzoylpiperazin-1-yl)-N-hydroxy-2-phenylacetamide] showed an IC50 of 1 to 15 µM.

`COc1ncc(-c2ccc(C(C(=O)NO)c3ccccc3)cc2)cn1` (centres unmarked) [Compound 5-92, N-hydroxy-2-(4-(2-methoxypyrimidin-5-yl)phenyl)-2-phenylacetamide] came in with an IC50 below 1 µM.

Turning to `COCCOc1ccc(C(C(=O)NO)c2ccccc2)cc1` (centres unmarked) [Compound 3-50, N-hydroxy-2-(4-(2-methoxyethoxy)phenyl)-2-phenylacetamide], the IC50 was below 1 µM.

In turn, `CCN(CCOC)c1ccc(C(C(=O)NO)c2ccccc2)cc1` (centres unmarked) [Compound 6-46, 2-(4-(ethyl(2-methoxyethyl)amino)phenyl)-N-hydroxy-2-phenylacetamide] displayed an IC50 below 1 µM.

For the molecule `O=C(NO)C(c1ccccc1)N1CCC(c2nc(-c3ccc4c(c3)OCO4)no2)CC1` (centres unmarked) [Compound 2-44, 2-(4-(3-(benzo[d][1,3]dioxol-5-yl)-1,2,4-oxadiazol-5-yl)piperidin-1-yl)-N-hydroxy-2-phenylacetamide], the IC50 was below 1 µM.

In the case of `COc1ccccc1COc1ccc(C(C(=O)NO)c2ccccc2)cc1` (centres unmarked) [Compound 5-109, N-hydroxy-2-(4-(2-methoxybenzyloxy)phenyl)-2-phenylacetamide], the IC50 was below 1 µM.

`CC(C)Oc1ccc(C(C(=O)NO)c2ccccc2)cc1` (centres unmarked) [Compound 3-47, N-hydroxy-2-(4-isopropoxyphenyl)-2-phenylacetamide] registered an IC50 below 1 µM.

Regarding `O=C(NO)C(c1ccccc1)c1ccc(OC2CCN(CC3CC3)CC2)cc1` (centres unmarked) [Compound 5-130, 2-(4-(1-(cyclopropylmethyl)piperidin-4-yloxy)phenyl)-N-hydroxy-2-phenylacetamide], the IC50 is below 1 µM.

As for `O=C(NO)C(c1ccccc1)c1ccc(C#CCC2CCCC2)cc1` (centres unmarked) [Compound 2-98, 2-(4-(3-cyclopentylprop-1-ynyl)phenyl)-N-hydroxy-2-phenylacetamide], the IC50 was below 1 µM.

Turning to `O=C(NO)C(Oc1ccc(F)c(Cl)c1)c1ccccc1` (centres unmarked) [Compound 7-34, 2-(3-chloro-4-fluorophenoxy)-N-hydroxy-2-phenylacetamide], the IC50 was in the range of 1 to 15 µM.

`CCCC(=O)N1CCN(C(C(=O)NO)c2ccccc2)CC1` (centres unmarked) [Compound 2-23, 2-(4-butyrylpiperazin-1-yl)-N-hydroxy-2-phenylacetamide] gave an IC50 of 1 to 15 µM.

Turning to `O=C(NO)C(c1ccccc1)C1CCN(c2ncccn2)CC1` (centres unmarked) [Compound 5-126, N-hydroxy-2-phenyl-2-(1-(pyrimidin-2-yl)piperidin-4-yl)acetamide], the half-maximal inhibitory concentration (IC50) fell in the range of 1 to 15 µM.

`CC(C)CCOc1ccc(C(C(=O)NO)c2ccccc2)cc1` (centres unmarked) [Compound 3-54, N-hydroxy-2-(4-(isopentyloxy)phenyl)-2-phenylacetamide]: the IC50 was in the range of 1 to 15 µM.

`COc1cccc(C(C(=O)NO)c2ccc(N3CCOCC3)cc2)c1` (centres unmarked) [Compound 5-113, N-hydroxy-2-(3-methoxyphenyl)-2-(4-morpholinophenyl)acetamide] came in with an IC50 below 1 µM.

With `O=C(NO)C(c1ccccc1)n1cc(Cc2ccccc2)nn1` (centres unmarked) [Compound 1-35, 2-(4-benzyl-1H-1,2,3-triazol-1-yl)-N-hydroxy-2-phenylacetamide], the IC50 is below 1 µM.

`CCCOc1ccc(OC(C(=O)NO)c2ccccc2)cc1` (centres unmarked) [Compound 7-41, N-hydroxy-2-phenyl-2-(4-propoxyphenoxy)acetamide] came in with an IC50 of 1 to 15 µM.

In the case of `O=C(NO)C(c1ccccc1)c1ccc(OCc2ccc(F)cc2)cc1` (centres unmarked) [Compound 2-13], the IC50 was below 1 µM.

In the case of `Cc1cc(C(=O)Nc2cccc(C(C(=O)NO)c3ccccc3)c2)c(C)o1` (centres unmarked) [Compound 2-64, N-(3-(2-(hydroxyamino)-2-oxo-1-phenylethyl)phenyl)-2,5-dimethylfuran-3-carboxamide], the IC50 was in the range of 1 to 15 µM.

Consider `O=C(NO)C(c1ccccc1)c1cccc(-c2ccncc2)c1` (centres unmarked) [Compound 5-30, N-hydroxy-2-phenyl-2-(3-(pyridin-4-yl)phenyl)acetamide], for which the IC50 was below 1 µM.

As for `O=C(NO)C(c1ccccc1)N1CCN(Cc2cccnc2)CC1` (centres unmarked) [Compound 2-40, N-hydroxy-2-phenyl-2-(4-(pyridin-3-ylmethyl)piperazin-1-yl)acetamide], the IC50 is 1 to 15 µM.

Consider `O=C(NO)C(c1ccccc1)N1CCN(c2ccccc2)CC1` (centres unmarked) [Compound 1-16, N-hydroxy-2-phenyl-2-(4-phenylpiperazin-1-yl)acetamide], for which the IC50 was below 1 µM.

Take `O=C(NO)C(c1ccccc1)c1cccc(Nc2ccccc2)c1` (centres unmarked) [Compound 3-73, N-hydroxy-2-phenyl-2-(3-(phenylamino)phenyl)acetamide]: the IC50 fell in the range of 1 to 15 µM.

Take `O=C(NO)C(c1ccccc1)N1CCN(c2ncccn2)CC1` (centres unmarked) [Compound 1-36, N-hydroxy-2-phenyl-2-(4-(pyrimidin-2-yl)piperazin-1-yl)acetamide]: the IC50 is below 1 µM.

`O=C(NO)C(c1ccc(N2CCOCC2)cc1)c1ccccc1F` (centres unmarked) [Compound 6-17, 2-(2-fluorophenyl)-N-hydroxy-2-(4-morpholinophenyl)acetamide]: the IC50 is below 1 µM.

In turn, `Cc1cccc(COc2cccc(C(C(=O)NO)c3ccccc3)c2)c1` (centres unmarked) [Compound 3-33, N-hydroxy-2-(3-(3-methylbenzyloxy)phenyl)-2-phenylacetamide] had an IC50 of 1 to 15 µM.

`O=C(NO)C(c1ccccc1)c1nnc(-c2cccs2)s1` (centres unmarked) [Compound 5-4, N-hydroxy-2-phenyl-2-(5-(thiophen-2-yl)-1,3,4-thiadiazol-2-yl)acetamide]: the half-maximal inhibitory concentration (IC50) was below 1 µM.

Turning to `COc1ccc(N2CCN(c3ccc(C(C(=O)NO)c4ccccc4)cc3)CC2)cc1` (centres unmarked) [Compound 5-84, N-hydroxy-2-(4-(4-(4-methoxyphenyl)piperazin-1-yl)phenyl)-2-phenylacetamide], the IC50 is below 1 µM.

As to `O=C(NO)C(c1ccccc1)c1cccc(NS(=O)(=O)c2ccc(Cl)cc2)c1` (centres unmarked) [Compound 2-93, 2-(3-(4-chlorophenylsulfonamido)phenyl)-N-hydroxy-2-phenylacetamide], the IC50 lay within 1 to 15 µM.

Turning to `O=C(NO)C(c1ccccc1)c1ccc(N2CCC(N3CCCC3)CC2)cc1` (centres unmarked) [Compound 3-83, N-hydroxy-2-phenyl-2-(4-(4-(pyrrolidin-1-yl)piperidin-1-yl)phenyl)acetamide], the IC50 was below 1 µM.

Molecule `O=C(NO)C(c1ccccc1)N1CCC(Cc2ccccc2)CC1` (centres unmarked) [Compound 1-9, 2-(4-benzylpiperidin-1-yl)-N-hydroxy-2-phenylacetamide] registered an IC50 below 1 µM.

`O=C(NO)C(c1ccccc1)c1ccc(-c2ccc(F)cc2)cc1` (centres unmarked) [Compound 1-45, 2-(4′-fluorobiphenyl-4-yl)-N-hydroxy-2-phenylacetamide] gave an IC50 below 1 µM.

Turning to `O=C(NO)C(c1ccccc1)N1CCN(C(=O)c2ccco2)CC1` (centres unmarked) [Compound 2-27, 2-(4-(furan-2-carbonyl)piperazin-1-yl)-N-hydroxy-2-phenylacetamide], the IC50 lay in the range of 1 to 15 µM.

With “2-(3-(benzo[d][1,3]dioxol-5-ylmethylbenzo[d][1,3]dioxol-5-ylmethoxy)phenyl)-N-hydroxy-2-phenylacetamide [Compound 3-7]”, the IC50 is below 1 µM.

In the case of `O=C(NO)C(c1ccc(N2CCOCC2)cc1)c1cccc(F)c1F` (centres unmarked) [Compound 6-22], the IC50 is below 1 µM.

`O=C(NO)C(c1ccc(N2CCOCC2)cc1)c1cccc(C(F)(F)F)c1` (centres unmarked) [Compound 6-21, N-hydroxy-2-(4-morpholinophenyl)-2-(3-(trifluoromethyl)phenyl)acetamide] yielded an IC50 of 1 to 15 µM.

`CCSc1ccc(-c2ccc(C(C(=O)NO)c3ccccc3)cc2)cc1` (centres unmarked) [Compound 2-115, 2-(4′-(ethylthio)biphenyl-4-yl)-N-hydroxy-2-phenylacetamide] came in with an IC50 below 1 µM.

The molecule `CC(C)CC(=O)Nc1cccc(C(C(=O)NO)c2ccccc2)c1` (centres unmarked) [Compound 2-54, N-(3-(2-(hydroxyamino)-2-oxo-1-phenylethyl)phenyl)-3-methylbutanamide] yielded an IC50 of 1 to 15 µM.

Molecule `O=C(NO)C(c1ccccc1)c1cccc(-c2ccc3c(c2)CCO3)c1` (centres unmarked) [Compound 2-104, 2-(3-(2,3-dihydrobenzofuran-5-yl)phenyl)-N-hydroxy-2-phenylacetamide] showed an IC50 below 1 µM.

`O=C(NO)C(c1ccccc1)c1ccc(N2CCC2)cc1` (centres unmarked) [Compound 6-39, 2-(4-(azetidin-1-yl)phenyl)-N-hydroxy-2-phenylacetamide]: the IC50 is below 1 µM.

In turn, `O=C(NO)C(c1ccccc1)c1ccc(-c2ccc(Oc3ccccc3)cc2)cc1` (centres unmarked) [Compound 2-117, N-hydroxy-2-(4′-phenoxybiphenyl-4-yl)-2-phenylacetamide] registered an IC50 below 1 µM.

Molecule `O=C(NO)C(c1ccc(F)cc1)c1ccc(F)cc1` [Compound 1-18, 2,2-bis(4-fluorophenyl)-N-hydroxyacetamide] displayed an IC50 below 1 µM.
